Experimental data as given in patent US9422285B2, “Substituted pyrazolo[1,5-A]-pyridine-3-carboxamides and use thereof” (Bayer Pharma Aktiengesellschaft, priority 2014, dated 2016).
Where a name gives a salt, the structure may show the parent alone.

These compounds were tested against T1, recombinant guanylate cyclase reporter cell line (Rattus norvegicus, UniProt P19686+P20595) (assay: Effect on a recombinant guanylate cyclase reporter cell line (B-2)). Conditions: in some cases mean values for individual determinations.
T1 construct: expressed in transfected cells
T1 sequence (P19686 1-690): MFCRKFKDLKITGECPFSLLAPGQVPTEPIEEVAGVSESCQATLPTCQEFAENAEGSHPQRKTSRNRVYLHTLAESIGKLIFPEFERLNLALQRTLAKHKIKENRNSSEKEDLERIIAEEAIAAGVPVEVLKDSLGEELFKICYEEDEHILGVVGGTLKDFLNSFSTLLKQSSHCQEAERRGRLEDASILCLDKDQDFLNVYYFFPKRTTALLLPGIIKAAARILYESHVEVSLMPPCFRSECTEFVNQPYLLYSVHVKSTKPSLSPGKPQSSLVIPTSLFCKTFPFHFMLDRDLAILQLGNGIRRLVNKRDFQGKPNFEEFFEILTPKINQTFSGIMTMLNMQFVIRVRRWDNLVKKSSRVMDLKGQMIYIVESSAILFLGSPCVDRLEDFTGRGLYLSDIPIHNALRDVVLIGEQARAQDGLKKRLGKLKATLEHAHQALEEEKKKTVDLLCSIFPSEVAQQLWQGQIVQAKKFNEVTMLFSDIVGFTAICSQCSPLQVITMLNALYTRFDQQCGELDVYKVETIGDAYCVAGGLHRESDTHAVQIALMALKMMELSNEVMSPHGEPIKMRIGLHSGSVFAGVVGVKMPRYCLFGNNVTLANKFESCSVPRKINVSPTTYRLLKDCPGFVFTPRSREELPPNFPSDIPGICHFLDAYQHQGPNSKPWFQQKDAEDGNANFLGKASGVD
T1 sequence (P20595 1-619): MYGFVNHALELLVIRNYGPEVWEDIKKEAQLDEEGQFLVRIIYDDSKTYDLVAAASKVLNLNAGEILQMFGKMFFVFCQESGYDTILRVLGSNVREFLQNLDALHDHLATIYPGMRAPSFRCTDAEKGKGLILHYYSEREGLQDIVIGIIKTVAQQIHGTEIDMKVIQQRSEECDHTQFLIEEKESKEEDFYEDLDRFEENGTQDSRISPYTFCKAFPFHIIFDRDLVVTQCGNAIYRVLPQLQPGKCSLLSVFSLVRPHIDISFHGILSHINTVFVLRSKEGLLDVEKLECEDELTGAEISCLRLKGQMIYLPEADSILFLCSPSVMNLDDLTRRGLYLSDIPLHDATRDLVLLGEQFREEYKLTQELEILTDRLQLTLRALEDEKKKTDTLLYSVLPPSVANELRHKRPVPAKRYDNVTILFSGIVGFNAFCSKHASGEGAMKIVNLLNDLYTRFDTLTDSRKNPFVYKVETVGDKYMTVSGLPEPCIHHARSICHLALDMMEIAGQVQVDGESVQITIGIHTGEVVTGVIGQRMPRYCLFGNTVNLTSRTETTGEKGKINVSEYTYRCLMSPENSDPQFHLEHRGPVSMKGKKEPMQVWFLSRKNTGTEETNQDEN
Assay type: cell-based
Description: B-2. Effect on a Recombinant Guanylate Cyclase Reporter Cell Line
The cellular effect of the inventive compounds is determined using a recombinant guanylate cyclase reporter cell line, as described in F. Wunder et al., Anal. Biochem. 339, 104-112 (2005).
Representative MEC values (MEC=minimum effective concentration) for the inventive compounds are shown in the table below (in some cases as mean values for individual determinations): […]

MEC (minimum effective concentration) | SMILES
0.3 µM | CCCC(C)(N)CNC(=O)c1c(C(F)(F)F)nn2c(OCc3c(F)cccc3F)cc(C)cc12 (single isomer, unassigned) [Example 52, ent-N-(2-Amino-2-methylpentyl)-7-[(2,6-difluorobenzyl)oxy]-5-methyl-2-(trifluoromethyl)pyrazolol[1,5-a]pyridine-3-carboxamide trifluoroacetate]
1.0 µM | Cc1cc(OCc2c(F)cccc2F)n2nc(C)c(C(=O)NC3CCCc4c(N)cccc43)c2c1 (racemic) [Example 139, rac-N-(5-Amino-1,2,3,4-tetrahydronaphthalen-1-y1)-74(2,6-difluorobenzyl)oxy]-2,5-dimethylpyrazolo[1,5-a]pyridine-3-carboxamide]
1.0 µM | Cc1cc(OCc2c(F)ccc(F)c2F)n2nc(C)c(C(=O)NC3(c4ccc(Cl)cc4)CCCC3)c2c1 [Example 31, N-[1-(4-Chlorophenyl)cyclopentyl]-2,5-dimethyl-7-[(2,3,6-trifluorobenzyl)oxy]pyrazolo[1,5-a]pyridine-3-carboxamide]
1.0 µM | Cc1cc(OCc2c(F)ccc(F)c2F)n2nc(C)c(C(=O)NCC(C)(N)C3CC3)c2c1 (racemic) [Example 13, rac-N-(2-Amino-2-cyclopropylpropyl)-2,5-dimethyl-7-[(2,3,6-trifluorobenzyl)oxy]pyrazolo[1,5-a]pyridine-3-carboxamide]
3.0 µM | Cc1cc(OCc2c(F)cccc2F)n2nc(C)c(C(=O)NCC(N)c3csc(C)n3)c2c1 (racemic) [Example 73, rac-N-[2-Amino-2-(2-methyl-1,3-thiazol-4-yl)ethyl]-7-[(2,6-difluorobenzyl)oxy]-2,5-dimethylpyrazolo[1,5-a]pyridine-3-carboxamide trifluoroacetate]
3.0 µM | Cc1cc(OCc2c(F)cccc2F)n2nc(C)c(C(=O)Nc3ccc(N4CCNCC4)c(C(F)(F)F)c3)c2c1 [Example 125, 7-[(2,6-Difluorobenzyl)oxy]-2,5-dimethyl-N-[4-(piperazin-l-yl)-3-(trifluoromethyl)phenyl]pyrazolo[1,5-a]pyridine-3-carboxamide]
3.0 µM | Cc1cc(OCc2c(F)cccc2F)n2nc(C)c(C(=O)N[C@@H](CC(=O)O)CC(C)C)c2c1 [Example 38, (3R)-3-[({7-[(2,6-Difluorobenzyl)oxy]-2,5-dimethylpyrazolo[1,5-a]pyridin-3-yl}carbonyl)amino]-5-methylhexanoic Acid]
3.0 µM | Cc1cc(OCc2c(F)cccc2F)n2nc(C)c(C(=O)NC3CCC3(C)N)c2c1 (racemic) [Example 91, rac-N-(2-Amino-2-methylcyclobutyl)-7-[(2,6-difluorobenzyl)oxy]-2,5-dimethylpyrazolo[1,5-a]pyridine-3-carboxamide]
0.3 µM | Cc1cc(OCc2c(F)ccc(F)c2F)n2nc(C)c(C(=O)Nc3cnn4ccccc34)c2c1 [Example 23, 2,5-Dimethyl-N-(pyrazolo[1,5-a]pyridin-3-yl)-7-[(2,3,6-trifluorobenzyl)oxy]pyrazolo[1,5-a]pyridine-3-carboxamide]
0.1 µM | Cc1cc(OCc2c(F)ccc(F)c2F)n2nc(C)c(C(=O)NC(CO)c3ccc(F)cc3)c2c1 (racemic) [Example 30, rac-N-[1-(4-Fluorophenyl)-2-hydroxyethyl]-2,5-dimethyl-7-[(2,3,6-trifluorobenzyl)oxy]pyrazolo[1,5-a]pyridine-3-carboxamide]
0.3 µM | Cc1cc(OCc2c(F)cccc2F)n2nc(C)c(C(=O)N[C@H]3c4ccccc4C[C@H]3O)c2c1 [Example 71, 7-[(2,6-Difluorobenzyl)oxy]-N-[(1S,2R)-2-hydroxy-2,3-dihydro-1H-inden-1-yl]-2,5-dimethylpyrazolo[1,5-a]pyridine-3-carboxamide trifluoroacetate]
3.0 µM | Cc1cc(OCc2c(F)cccc2F)n2nc(C)c(C(=O)NCCCS(=O)(=O)NC3CC3)c2c1 [Example 151, N-[3-(Cyclopropylsulphamoyl)propyl]-7-[(2,6-difluorobenzyl)oxy]-2,5-dimethylpyrazolo[1,5-a]pyridine-3-carboxamide]
3.0 µM | Cc1cc(OCc2c(F)cccc2F)n2nc(C)c(C(=O)NOCCO)c2c1 [Example 64, 7-[(2,6-Difluorobenzyl)oxy]-N-(2-hydroxyethoxy)-2,5-dimethylpyrazolo[1,5-a]pyridine-3-carboxamide trifluoroacetate]
1.0 µM | CCCC(C)(N)CNC(=O)c1c(C)nn2c(OCc3cccc(F)c3F)cc(C)cc12 (racemic) [Example 158, rac-N-(2-Amino-2-methylpentyl)-7-[(2,3-difluorobenzyl)oxy]-2,5-dimethylpyrazolo[1,5-a]pyridine-3-carboxamide]
0.03 µM | Cc1cc(OCc2c(F)cccc2F)n2nc(C)c(C(=O)NC3CCOc4ncccc43)c2c1 (racemic) [Example 74, rac-7-[(2,6-Difluorobenzyl)oxy]-N-(3,4-dihydro-2H-pyrano[2,3-b]pyridin-4-yl)-2,5-dimethylpyrazolo[1,5-a]pyridine-3-carboxamide trifluoroacetate]
0.3 µM | Cc1cc(OCc2c(F)ccc(F)c2F)n2nc(C)c(C(=O)NCc3ccc(Cl)nc3)c2c1 [Example 21, N-[(6-Chloropyridin-3-yl)methyl]-2,5-dimethyl-7-[(2,3,6-trifluorobenzyl)oxy]pyrazolo[1,5-a]pyridine-3-carboxamide]
0.3 µM | Cc1cc(OCc2c(F)cccc2F)n2nc(C)c(C(=O)NCC(C)(N)CC(C)C)c2c1 (racemic) [Example 92, rac-N-(2-Amino-2,4-dimethylpentyl)-7-[(2,6-difluorobenzyl)oxy]-2,5-dimethylpyrazolo[1,5-a]pyridine-3-carboxamide]
1.0 µM | CCOC(=O)NCCNC(=O)c1c(C)nn2c(OCc3c(F)cccc3F)cc(C)cc12 [Example 106, Ethyl {2-[({7-[(2,6-difluorobenzyl)oxy]-2,5-dimethylpyrazolo[1,5-a]pyridin-3-yl}carbonyl)amino]ethyl}carbamate]
1.0 µM | CCCc1nn2c(OCc3c(F)cccc3F)cc(C)cc2c1C(=O)NCC(C)(N)CCC (single isomer, unassigned) [Example 51, ent-N-(2-Amino-2-methylpentyl)-7-[(2,6-difluorobenzyl)oxy]-5-methyl-2-propylpyrazolo[1,5-a]pyridine-3-carboxamide]
10 µM | Cc1cc(OCc2c(F)cccc2F)n2nc(C)c(C(=O)NCCN3CCN(C)CC3)c2c1 [Example 93, 7-[(2,6-Difluorobenzyl)oxy]-2,5-dimethyl-N-[2-(4-methylpiperazin-1-yl)ethyl]pyrazolo[1,5-a]pyridine-3-carboxamide]
1.0 µM | CCCC(C)(N)CNC(=O)c1c(C)nn2c(OCc3c(F)cccc3Cl)cc(C)cc12 (racemic) [Example 164]
0.2 µM | CCCC(C)(N)CNC(=O)c1c(C)nn2c(OCc3c(F)ccc(F)c3F)cc(C)cc12 (single isomer, unassigned) [Example 4, ent-N-(2-Amino-2-methylpentyl)-2,5-dimethyl-7-[(2,3,6-trifluorobenzyl)oxy]pyrazolo[1,5-a]pyridine-3-carboxamide]

SMILES | MEC (minimum effective concentration)
Cc1cc(OCc2c(F)ccc(F)c2F)n2nc(C)c(C(=O)NC3CC4CCCC(C3)N4C)c2c1 (centres unmarked) [Example 29, 2,5-Dimethyl-N-(9-methyl-9-azabicyclo[3.3.1]non-3-yl)-7-[(2,3,6-trifluorobenzyl)oxy]pyrazolo[1,5-a]pyridine-3-carboxamide] | 0.3 µM
